We go through one molecule from patent US5858687A (priority 1995, dated 1999).

The subject of experiment [1] is human colon carcinoma HT-29 cells. Type of experiment: cell-based.
The next experiment has as its system human melanoma cells. The class given is cell-based.

Entries after “also recorded” stand apart in the source; their conditions may differ.

As for `C=C(C=O)C[C@@H]1C[C@H](O)[C@]2(C)O[C@@H]3C[C@@H]4O[C@@H]5C[C@]6(C)O[C@]7(C)CC[C@@H]8O[C@@H]9C[C@]%10(C)O[C@@H]%11C(C)=CC(=O)O[C@H]%11C[C@H]%10O[C@H]9C[C@@H](C)[C@H]8O[C@H]7C[C@H]6O[C@H]5C/C=C\[C@H]4O[C@H]3C[C@H]2O1` [brevetoxin], the “response in the presence of ouabain and veratridine” value in experiment [1] was “lack of response”; in the experiment with human melanoma cells it was “does not respond; also recorded: lack of response”.
